Reference: ChEMBL document CHEMBL1201862, “PubChem BioAssay data set” (2004)
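96-well plates; 48 h exposure; 5 concentrations. Endpoints by linear interpolation between flanking doses. Not reached: highest tested concentration assigned. GI50: concentration for 50% inhibition of growth.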 Active and inactive are the calls of the source. Cut-off read from the data, not from the text of the source: active = GI50 up to about 1.1 µM and inactive = higher.

Legend:
Assay in all cases: DTP human tumour cell line panel, 48 h
[1] = test system: 786-0
[2] = test system: CCRF-CEM
[3] = test system: DU-145
[4] = test system: HCT-116
[5] = test system: Hs-578T
[6] = test system: LOX IMVI
[7] = test system: MCF7
[8] = test system: MOLT-4
[9] = test system: Malme-3M
[10] = test system: NCI-H226
[11] = test system: NCI-H522
[12] = test system: OVCAR-4
[13] = test system: OVCAR-5
[14] = test system: RPMI-8226
[15] = test system: SF-295
[16] = test system: SF-539
[17] = test system: SN12C
[18] = test system: UACC-257
[19] = test system: UO-31
[20] = test system: MDA-N

## Cc1cc(=O)c2cc(/N=C/c3ccc([N+](=O)[O-])o3)ccc2o1
[1]
  GI50: 64.4 µM (inactive)
[2]
  GI50: 41.1 µM (inactive)
[3]
  GI50: > 100 µM (inactive)
[4]
  GI50: 32.5 µM (inactive)
[5]
  GI50: > 100 µM (inactive)
[6]
  GI50: 42.7 µM (inactive)
[7]
  GI50: 24.3 µM (inactive)
[8]
  GI50: 37.4 µM (inactive)
[9]
  GI50: 30 µM (inactive)
[10]
  GI50: > 100 µM (inactive)
[11]
  GI50: 64.6 µM (inactive)
[12]
  GI50: > 100 µM (inactive)
[13]
  GI50: > 100 µM (inactive)
[14]
  GI50: 35.5 µM (inactive)
[15]
  GI50: > 100 µM (inactive)
[16]
  GI50: > 100 µM (inactive)
[17]
  GI50: > 100 µM (inactive)
[18]
  GI50: 28.1 µM (inactive)
[19]
  GI50: > 100 µM (inactive)

## COc1ccc(C2=NN=C3C(c4ccccc4)=Nc4ccccc4N3C2)cc1
[1]
  GI50: 10.6 µM (inactive)
[2]
  GI50: 2.16 µM (inactive)
[3]
  GI50: 8.18 µM (inactive)
[4]
  GI50: 14.6 µM (inactive)
[6]
  GI50: 16.9 µM (inactive)
[7]
  GI50: 21.7 µM (inactive)
[20]
  GI50: 49.1 µM (inactive)
[8]
  GI50: 7.05 µM (inactive)
[9]
  GI50: 25.2 µM (inactive)
[10]
  GI50: 41.6 µM (inactive)
[12]
  GI50: 6.49 µM (inactive)
[13]
  GI50: 54.2 µM (inactive)
[14]
  GI50: 38.8 µM (inactive)
[16]
  GI50: 28.1 µM (inactive)
[17]
  GI50: 27.8 µM (inactive)
[18]
  GI50: 27.5 µM (inactive)
[19]
  GI50: 6.46 µM (inactive)

## CCCCCCCCCCC(O)[C@H]1CCC(C2CC[C@H]([C@H](O)CCCCCCCCCCC(O)CC3=CC(C)OC3=O)O2)O1 (stereo partly specified)
[1]
  GI50: 3.51 µM (inactive)
[2]
  GI50: 1.94 µM (inactive)
[3]
  GI50: 4.57 µM (inactive)
[4]
  GI50: 1.94 µM (inactive)
[5]
  GI50: 1.7 µM (inactive)
[6]
  GI50: 1.38 µM (inactive)
[7]
  GI50: 1.21 µM (inactive)
[8]
  GI50: 2.47 µM (inactive)
[9]
  GI50: 1.39 µM (inactive)
[10]
  GI50: 1.11 µM (active)
[11]
  GI50: 1.46 µM (inactive)
[12]
  GI50: 2.75 µM (inactive)
[13]
  GI50: 3.08 µM (inactive)
[14]
  GI50: 2.21 µM (inactive)
[15]
  GI50: 0.214 µM (active)
[16]
  GI50: 1.56 µM (inactive)
[17]
  GI50: 2.25 µM (inactive)
[18]
  GI50: 1.27 µM (inactive)
[19]
  GI50: 1.15 µM (inactive)

## Cc1cc(C)c2c(c1)CC1(Cc3cc(C)c(C)cc3C1=O)C2=O (stereo unspecified)
[1]
  GI50: 71.9 µM (inactive)
[2]
  GI50: > 100 µM (inactive)
[3]
  GI50: > 100 µM (inactive)
[5]
  GI50: 56.6 µM (inactive)
[6]
  GI50: > 100 µM (inactive)
[7]
  GI50: > 100 µM (inactive)
[8]
  GI50: > 100 µM (inactive)
[9]
  GI50: 4.75 µM (inactive)
[10]
  GI50: > 100 µM (inactive)
[11]
  GI50: > 100 µM (inactive)
[12]
  GI50: 77.8 µM (inactive)
[13]
  GI50: 48.1 µM (inactive)
[14]
  GI50: > 100 µM (inactive)
[15]
  GI50: > 100 µM (inactive)
[16]
  GI50: 46.2 µM (inactive)
[17]
  GI50: > 100 µM (inactive)
[18]
  GI50: > 100 µM (inactive)
[19]
  GI50: > 100 µM (inactive)

## O=C(CSCC(=O)N/N=C/c1cccc(O)c1)N/N=C/c1cccc(O)c1
[1]
  GI50: > 100 µM (inactive)
[3]
  GI50: > 100 µM (inactive)
[4]
  GI50: > 100 µM (inactive)
[5]
  GI50: > 100 µM (inactive)
[7]
  GI50: > 100 µM (inactive)
[8]
  GI50: > 100 µM (inactive)
[9]
  GI50: > 100 µM (inactive)
[10]
  GI50: 82.4 µM (inactive)
[11]
  GI50: > 100 µM (inactive)
[12]
  GI50: > 100 µM (inactive)
[13]
  GI50: > 100 µM (inactive)
[14]
  GI50: > 100 µM (inactive)
[15]
  GI50: > 100 µM (inactive)
[16]
  GI50: > 100 µM (inactive)
[17]
  GI50: > 100 µM (inactive)
[18]
  GI50: > 100 µM (inactive)
[19]
  GI50: > 100 µM (inactive)

## Oc1nnc(CNc2ccc(Cl)cc2Cl)c2ccccc12
[1]
  GI50: 16.7 µM (inactive)
[2]
  GI50: > 100 µM (inactive)
[4]
  GI50: 22.8 µM (inactive)
[6]
  GI50: 46.3 µM (inactive)
[8]
  GI50: 31.5 µM (inactive)
[9]
  GI50: 23.6 µM (inactive)
[10]
  GI50: 36.1 µM (inactive)
[11]
  GI50: 18.2 µM (inactive)
[12]
  GI50: 16.5 µM (inactive)
[13]
  GI50: 24.4 µM (inactive)
[14]
  GI50: 58.2 µM (inactive)
[15]
  GI50: 20.9 µM (inactive)
[16]
  GI50: 17.1 µM (inactive)
[17]
  GI50: 34.3 µM (inactive)
[18]
  GI50: 33.4 µM (inactive)
[19]
  GI50: 17.3 µM (inactive)

## CCCCC(=O)Nc1ccc2c(C)cc(-c3ccc(-c4cc(-c5ccc(C)cc5)cc(-c5ccc(-c6cc(C)c7ccc(NC(=O)CCCC)nc7n6)cc5)n4)cc3)nc2n1
[1]
  GI50: > 100 µM (inactive)
[2]
  GI50: > 100 µM (inactive)
[3]
  GI50: > 100 µM (inactive)
[4]
  GI50: > 100 µM (inactive)
[7]
  GI50: > 100 µM (inactive)
[20]
  GI50: > 100 µM (inactive)
[8]
  GI50: > 100 µM (inactive)
[9]
  GI50: > 100 µM (inactive)
[11]
  GI50: > 100 µM (inactive)
[12]
  GI50: > 100 µM (inactive)
[13]
  GI50: > 100 µM (inactive)
[14]
  GI50: > 100 µM (inactive)
[15]
  GI50: > 100 µM (inactive)
[17]
  GI50: > 100 µM (inactive)
[18]
  GI50: > 100 µM (inactive)
[19]
  GI50: > 100 µM (inactive)

## CC12CCC(CC1(Cl)Cl)C2 (stereo unspecified)
[1]
  GI50: > 100 µM (inactive)
[2]
  GI50: > 100 µM (inactive)
[5]
  GI50: > 100 µM (inactive)
[6]
  GI50: > 100 µM (inactive)
[7]
  GI50: > 100 µM (inactive)
[8]
  GI50: > 100 µM (inactive)
[9]
  GI50: > 100 µM (inactive)
[10]
  GI50: > 100 µM (inactive)
[11]
  GI50: > 100 µM (inactive)
[12]
  GI50: > 100 µM (inactive)
[13]
  GI50: > 100 µM (inactive)
[14]
  GI50: > 100 µM (inactive)
[15]
  GI50: > 100 µM (inactive)
[17]
  GI50: > 100 µM (inactive)
[18]
  GI50: > 100 µM (inactive)
[19]
  GI50: > 100 µM (inactive)

## CCCCCCNc1n[nH]c(=O)c2c1nnn2Cc1ccccc1
[1]
  GI50: > 100 µM (inactive)
[2]
  GI50: > 100 µM (inactive)
[3]
  GI50: > 100 µM (inactive)
[4]
  GI50: > 100 µM (inactive)
[6]
  GI50: > 100 µM (inactive)
[7]
  GI50: > 100 µM (inactive)
[20]
  GI50: > 100 µM (inactive)
[8]
  GI50: > 100 µM (inactive)
[9]
  GI50: > 100 µM (inactive)
[12]
  GI50: > 100 µM (inactive)
[13]
  GI50: > 100 µM (inactive)
[14]
  GI50: > 100 µM (inactive)
[15]
  GI50: > 100 µM (inactive)
[17]
  GI50: > 100 µM (inactive)
[18]
  GI50: > 100 µM (inactive)
[19]
  GI50: > 100 µM (inactive)

## Fc1c(F)c(C(F)(F)F)c(F)c(F)c1N/N=C/c1cn(Cc2ccccc2)c2ccccc12
[1]
  GI50: 23.2 µM (inactive)
[2]
  GI50: 20.1 µM (inactive)
[3]
  GI50: 29.2 µM (inactive)
[4]
  GI50: 23.1 µM (inactive)
[5]
  GI50: 41.7 µM (inactive)
[6]
  GI50: 22.8 µM (inactive)
[7]
  GI50: 23.1 µM (inactive)
[8]
  GI50: 23.3 µM (inactive)
[9]
  GI50: 30.4 µM (inactive)
[11]
  GI50: 23.7 µM (inactive)
[12]
  GI50: 23.4 µM (inactive)
[13]
  GI50: 19.2 µM (inactive)
[14]
  GI50: 25.9 µM (inactive)
[15]
  GI50: 13.6 µM (inactive)
[16]
  GI50: 20 µM (inactive)
[17]
  GI50: 29.2 µM (inactive)
[18]
  GI50: 21.5 µM (inactive)
[19]
  GI50: 23.4 µM (inactive)

## CNC(=O)c1cc2nc3ccccc3c(=O)n2c2ccccc12
[1]
  GI50: > 10 µM (inactive)
[2]
  GI50: > 10 µM (inactive)
[3]
  GI50: > 10 µM (inactive)
[4]
  GI50: > 10 µM (inactive)
[5]
  GI50: > 10 µM (inactive)
[6]
  GI50: > 10 µM (inactive)
[7]
  GI50: > 10 µM (inactive)
[8]
  GI50: > 10 µM (inactive)
[9]
  GI50: > 10 µM (inactive)
[10]
  GI50: > 10 µM (inactive)
[11]
  GI50: > 10 µM (inactive)
[12]
  GI50: > 10 µM (inactive)
[13]
  GI50: > 10 µM (inactive)
[14]
  GI50: > 10 µM (inactive)
[15]
  GI50: > 10 µM (inactive)
[16]
  GI50: > 10 µM (inactive)
[17]
  GI50: > 10 µM (inactive)
[18]
  GI50: > 10 µM (inactive)
[19]
  GI50: > 10 µM (inactive)
